Results as given in US20090035345A1, “Nuclear Receptors Agonists for Treatment of Atherosclerosis and/or Related Cardiovascular Disease” (ACADEMISCH MEDISCH CENTRUM, BUREAU, priority 2005, published 2009).

How the values were obtained:
human SMCs [1] = experiment: DNA synthesis assay ([3H]thymidine incorporation) in FBS-stimulated cultured SMCs; format: cell-based; conditions: for DNA synthesis in SMCs: increasing concentrations of C-DIM
Protocol: (§1) Human SMCs were explanted from umbilical cord arteries. Cells were cultured in DMEM (Invitrogen Life Technology, Breda, The Netherlands) with 10% (v/v) fetal bovine serum (FBS) with penicillin and streptomycin (Invitrogen). Cells were used at passages five to seven. […] To determine cellular viability, cells were washed with PBS and subsequently incubated in medium in the presence of 0.5-mg/ml 3-(4,5-dimethylthiazol-2-yl)-2,5-diphenyltetrazolium bromide (MTT; Sigma Diagnostics, St. Louis). After two hours, medium was discarded, formazan crystals were dissolved in isopropanol and optical density was measured at 590 nm. Apoptosis was induced by incubating cells for 24 hours in medium with 0.25 μM staurosporine (Sigma). Subsequently, SMCs were fixed, stained with Hoechst dye and the relative number of apoptotic nuclei was determined.
SMCs were seeded in 24-well plates at 1−4×10^4 cells per well and reached 60% to 70% confluency after 24 hours. SMCs were made quiescent by incubation for 24 hours in FBS-free medium. 6-MP was dissolved in dimethylsulfoxide and applied one hour before FBS stimulation. SMCs were stimulated for 24 hours with 10% (v/v) FBS and subsequently cells were labeled for 18 hours with 0.25 μCi/well [methyl-3H]thymidine (Amersham Biosciences, Buckinghamshire, UK). Incorporated radioactivity was precipitated for 30 min at 4° C. with 10% (w/v) trichloroacetic acid, washed twice with 5% (w/v) trichloroacetic acid, and dissolved in 0.5 N NaOH (0.5 mL per well). Incorporated [^3H]thymidine was measured by liquid-scintillation counting.
(§2) The following small interfering (si)RNA sequences were used: Nur77 siRNA, 5′-CAG UCC AGC CAU GCU CCU C dTdT-3′, as described previously^20, and control siRNA, 5′-CAG ACG AGC CUU GCU CGU C dTdT-3′ (Ambion Inc., Austin, Tex.). Five μg of siRNA was transfected into 0.5−1×10^6 SMCs, using Nucleofector reagent for SMCs (Amaxa) as per the manufacturer's recommendations. Total mRNA was isolated five days after transfection, using the absolutely mRNA miniprep kit (Stratagene, La Jolla, Calif.). Subsequent cDNA synthesis was performed using the iScript cDNA synthesis kit (Biorad, Hercules, Calif.). Real-time polymerase chain reaction (PCR) was performed using SYBR green mix (Biorad) in the MyIQ System (Biorad). Primers for Nur77 were as follows: (forward) 5′-[…]-3′ and (reverse) 5′-[…]-3′. As a control for equal amount of first strand cDNA in different samples we corrected for Ribosomal Phosphoprotein (P0) mRNA levels, which were determined with the following primers (forward) 5′-[…]-3′ and (reverse) 5′-[…]-3′.
as §2, with “iscript” for “iScript”

TR3-like factors = conditions: Chintharlapalli et al., J Biol. Chem. 2005; cited from earlier work
human SMCs [2] = experiment: Apoptosis of SMCs, Hoechst staining of nuclei; format: cell-based; conditions: 24 hours
Protocol: as §1

human SMCs [3] = experiment: SMC viability by MTT assay; format: cell-based; conditions: quiescent SMCs, 24 hours
Protocol: as §1

FC(F)(F)c1ccc(C(c2c[nH]c3ccccc23)c2c[nH]c3ccccc23)cc1 [C-DIM-CF3]
DNA synthesis in SMCs (human SMCs [1]; serum): inhibit DNA synthesis in SMCs dose dependently
activity of TR3-like factors (TR3-like factors): increase the activity of TR3-like factors

c1ccc(C(c2c[nH]c3ccccc23)c2c[nH]c3ccccc23)cc1 [C-DIM-H]
effectiveness in inhibiting DNA synthesis compared with the other C-DIMs (human SMCs [1]; serum, increasing concentrations): less effective
DNA synthesis in SMCs (human SMCs [1]; serum): inhibit DNA synthesis in SMCs dose dependently
activity of TR3-like factors (TR3-like factors): increase the activity of TR3-like factors

COc1ccc(C(c2c[nH]c3ccccc23)c2c[nH]c3ccccc23)cc1 [C-DIM-OCH3]
inhibition of DNA synthesis (human SMCs [1]; SMCs transfected with Nur77 (TR3)-specific siRNA): 40.1%
inhibition of DNA synthesis (human SMCs [1]; SMCs transfected with control siRNA): 49.7%
DNA synthesis in SMCs (human SMCs [1]; serum): inhibit DNA synthesis in SMCs dose dependently
activity of TR3-like factors (TR3-like factors): increase the activity of TR3-like factors

CN[C@@H]1C[C@H]2O[C@@](C)([C@@H]1OC)n1c3ccccc3c3c4c(c5c6ccccc6n2c5c31)C(=O)NC4 [staurosporine]
induction of apoptosis (human SMCs [2]; SMCs, staurosporine 0.25 μM): induces apoptosis
apoptosis (apoptotic nuclei) (human SMCs [2]; quiescent SMCs): 50%±4%
cellular viability / cytotoxicity (MTT) (human SMCs [3]): reduces cell viability
reduction of number of viable cells (MTT) (human SMCs [3]): 35%
